PubChem BioAssay (NCI)
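Values below derive from 48-hour exposures of cells grown in 96-well plates, with endpoints linearly interpolated between the two concentrations bracketing the appropriate inhibition level. Definition used: TGI = concentration required for complete inhibition of growth.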

What was measured:
Experiment in all cases: growth of human tumour cells (NCI), 48 h
U251 CNS = system: U251 CNS
SN12C renal = system: SN12C renal
SF-539 CNS = system: SF-539 CNS
MDA-N = system: MDA-N
RPMI-8226 leukemia = system: RPMI-8226 leukemia
A498 renal = system: A498 renal
HCT-15 colon = system: HCT-15 colon
MDA-MB-231 breast = system: MDA-MB-231 breast
SK-MEL-5 melanoma = system: SK-MEL-5 melanoma
HCT-116 colon = system: HCT-116 colon
OVCAR-8 ovarian = system: OVCAR-8 ovarian
TK-10 renal = system: TK-10 renal
BT-549 breast = system: BT-549 breast
OVCAR-3 ovarian = system: OVCAR-3 ovarian
SK-OV-3 ovarian = system: SK-OV-3 ovarian
T-47D breast = system: T-47D breast
OVCAR-4 ovarian = system: OVCAR-4 ovarian
HL-60(TB) leukemia = system: HL-60(TB) leukemia
HS 578T breast = system: HS 578T breast
IGROV1 ovarian = system: IGROV1 ovarian
HCC-2998 colon = system: HCC-2998 colon
NCI-H522 lung = system: NCI-H522 lung
PC-3 prostate = system: PC-3 prostate
MCF7 breast = system: MCF7 breast
M14 melanoma = system: M14 melanoma
NCI/ADR-RES ovarian = system: NCI/ADR-RES ovarian
NCI-H23 lung = system: NCI-H23 lung
EKVX NSCLC = system: EKVX NSCLC
CCRF-CEM leukemia = system: CCRF-CEM leukemia
SF-295 CNS = system: SF-295 CNS
SK-MEL-2 melanoma = system: SK-MEL-2 melanoma
K-562 leukemia = system: K-562 leukemia
SW-620 colon = system: SW-620 colon
SNB-19 CNS = system: SNB-19 CNS
A549 NSCLC = system: A549 NSCLC
MALME-3M melanoma = system: MALME-3M melanoma
DU-145 prostate = system: DU-145 prostate
MOLT-4 leukemia = system: MOLT-4 leukemia
KM12 colon = system: KM12 colon
SF-268 CNS = system: SF-268 CNS
HT29 colon = system: HT29 colon
ACHN renal = system: ACHN renal
UACC-62 melanoma = system: UACC-62 melanoma
CAKI-1 renal = system: CAKI-1 renal
LOX IMVI melanoma = system: LOX IMVI melanoma
SNB-75 CNS = system: SNB-75 CNS
NCI-H226 lung = system: NCI-H226 lung
SK-MEL-28 melanoma = system: SK-MEL-28 melanoma
MDA-MB-435 = system: MDA-MB-435
RXF 393 renal = system: RXF 393 renal
786-0 renal = system: 786-0 renal
COLO 205 colon = system: COLO 205 colon
UO-31 renal = system: UO-31 renal
SR leukemia = system: SR leukemia
UACC-257 melanoma = system: UACC-257 melanoma
HOP-62 NSCLC = system: HOP-62 NSCLC
OVCAR-5 ovarian = system: OVCAR-5 ovarian

CC(C)/C=N\N1C(N)=C(C#N)C(C#N)(C#N)C1C(C)C (configuration not stated)
TGI (U251 CNS): > 100 µM
TGI (SN12C renal): > 100 µM
TGI (SF-539 CNS): 64.8 µM
TGI (MDA-N): 69.8 µM
TGI (RPMI-8226 leukemia): > 100 µM
TGI (A498 renal): > 100 µM
TGI (HCT-15 colon): > 100 µM
TGI (MDA-MB-231 breast): > 100 µM
TGI (SK-MEL-5 melanoma): > 100 µM
TGI (HCT-116 colon): > 100 µM
TGI (OVCAR-8 ovarian): 58.1 µM
TGI (TK-10 renal): > 100 µM
TGI (BT-549 breast): 92.3 µM
TGI (OVCAR-3 ovarian): > 100 µM
TGI (SK-OV-3 ovarian): > 100 µM
TGI (T-47D breast): > 100 µM
TGI (OVCAR-4 ovarian): > 100 µM
TGI (HL-60(TB) leukemia): 91.7 µM
TGI (HS 578T breast): > 100 µM
TGI (IGROV1 ovarian): > 100 µM
TGI (HCC-2998 colon): > 100 µM
TGI (NCI-H522 lung): > 100 µM
TGI (PC-3 prostate): > 100 µM
TGI (MCF7 breast): > 100 µM
TGI (M14 melanoma): > 100 µM
TGI (NCI/ADR-RES ovarian): 82.8 µM
TGI (NCI-H23 lung): > 100 µM
TGI (EKVX NSCLC): > 100 µM
TGI (CCRF-CEM leukemia): 93.2 µM
TGI (SF-295 CNS): > 100 µM
TGI (SK-MEL-2 melanoma): > 100 µM
TGI (K-562 leukemia): > 100 µM
TGI (SW-620 colon): > 100 µM
TGI (SNB-19 CNS): > 100 µM
TGI (A549 NSCLC): > 100 µM
TGI (MALME-3M melanoma): > 100 µM
TGI (DU-145 prostate): > 100 µM
TGI (MOLT-4 leukemia): > 100 µM
TGI (KM12 colon): > 100 µM
TGI (SF-268 CNS): > 100 µM
TGI (HT29 colon): 80 µM
TGI (ACHN renal): > 100 µM
TGI (UACC-62 melanoma): 76.5 µM
TGI (CAKI-1 renal): > 100 µM
TGI (LOX IMVI melanoma): > 100 µM
TGI (SNB-75 CNS): > 100 µM
TGI (NCI-H226 lung): > 100 µM
TGI (SK-MEL-28 melanoma): > 100 µM
TGI (MDA-MB-435): 58.6 µM
TGI (RXF 393 renal): > 100 µM
TGI (786-0 renal): > 100 µM
TGI (COLO 205 colon): > 100 µM
TGI (UO-31 renal): > 100 µM
TGI (SR leukemia): 82.9 µM
TGI (UACC-257 melanoma): > 100 µM
TGI (HOP-62 NSCLC): > 100 µM
TGI (OVCAR-5 ovarian): > 100 µM
